Source: patent US20140127231A1, “p38 MAPK Pathway Inhibitors as Female-Specific Therapeutics” (UNIVERSITY OF VERMONT, priority 2012, published 2014)
“Also recorded” adds a separate entry of the source.

What was measured:
[1] = system: Naïve CD4+ T cells cultured under TH17 polarizing conditions; assay: In vitro TH17 differentiation of CD4+ T cells, IL-17 production; type: cell-based, mice; conditions: 3 days
Procedure: Naïve CD4+ T cells were purified by negative selection and cultured under TH17 polarizing conditions for 3 days in the presence of SB20350 (5 μM if not otherwise indicated). IL-17 secretion was analyzed by ELISA (FIG. 3A). Relative IL-17 mRNA was assessed by qRT-PCR (FIG. 3B). IL-17 levels were assessed using intracellular staining and flow cytometry (FIG. 3C).
Total CD4 T cells were isolated from spleen and lymph nodes as previously described (Noubade et al., 2007, J Clin Invest., 117(11):3507-3518), by negative selection for CD8-, MHC class II-, NK1.1- and CD11b-positive cells using magnetic beads from QIAGEN. For FACS sorting, negatively selected CD4 T cells were stained with anti-TCRβ-allophycocyanin and anti-CD4-Texas Red (Invitrogen), and sorted using a FACSAria cell sorting system (BD Biosciences). Th17 CD4 T cells were generated by activating total CD4 T cells (1×10^6 cells/mL) in RPMI containing 10% FBS (Hyclone), with plate bound anti-CD3 (5 μg/mL) and soluble anti-CD28 (1 μg/mL) mAbs from BD Pharmingen in the presence of 1 ng/mL TGFβ (PeproTech Inc), 30 ng/mL IL-6 (R&D Systems), 10 μg/mL anti-IFNγ, and 10 μg/mL anti-IL-4 mAbs. […]
For intracellular cytokine staining, either FACS-sorted or total CD4 T cells polarized to Th17 cells in the absence or the presence of 5 μM SB203580 were stimulated with 5 ng/mL PMA, 250 ng/mL ionomycin, and 2 μM monensin (Sigma-Aldrich) for the last 4 hours of culture. […] Cells were collected using a LSR II cytometer (BD Biosciences) and analyzed using FlowJo software (TreeStar Inc).
Total RNA was extracted from CD4 T cells using RNeasy RNA isolation reagent (QIAGEN) as recommended by the manufacturer. The generated cDNA was used in quantitative real-time PCR using the assay-on-demand (AOD) TaqMan probe and primers for IL-17A and β2-microglobulin (Applied Biosystems). β2-microglobulin was used as a reference gene and relative mRNA levels were calculated using the comparative CT method.
IL-17 production was analyzed by various methods including ELISA, qRT-PCR, and intracellular staining and flow cytometry.

[2] = system: TH17 and TH1 cells in CNS-infiltrating cells; assay: CNS-infiltrating cells of treated EAE mice, intracellular cytokine staining and flow cytometry; type: in vivo, C57BL/6J (B6) mice; conditions: female B6 mice treated daily, D30 post-immunization
Description: Female B6 mice were immunized for EAE as described for FIG. 1 and treated daily with carrier or SB. On D30 post-immunization, CNS (brain and spinal cord) cells were harvested and analyzed by intracellular staining and flow cytometry. Relative percentages (out of CD4+TCRβ+ population) of IL-17+, IFN-γ+, or IL-17+ IFN-γ+ cells (FIG. 2A), and percentages of CD4+TCRβ+ cells (out of CD45+ cells) (FIG. 2B). DLN cells were collected on D20 and restimulated with MOG35-55 for 3 days. Production of IFN-γ+(FIG. 2C) or IL-17 (FIG. 2D) was assessed by ELISA.
EAE was induced in female C57BL/6J mice as described previously (Noubade et al., 2007, J Clin Invest., 117(11):3507-3518). Mice were injected subcutaneously with an emulsion containing 200 μg of MOG35-55 peptide ([…] (SEQ ID NO: 1) and complete Freund adjuvant (CFA; Sigma-Aldrich) supplemented with 200 μg of Mycobacterium tuberculosis H37RA (Difco Laboratories) in the posterior right and left flank; 1 week later, all mice were similarly injected at 2 sites on the right and left flank anterior of the initial injection sites (2×MOG35-55+CFA). Mice received 5 mg/kg/d SB203580 dihydrochloride (Tocris) by IP injection in a total volume of 200 μL or an equal volume of carrier every day from the day of immunization.
Animals were perfused with saline and brains and spinal cords removed. A single-cell suspension was obtained and passed through a 70-μm strainer. Mononuclear cells were obtained by Percoll gradient (37%/70%) centrifugation and collected from the interphase. Cells were washed and stimulated for 4 hours with PMA/ionomycin in the presence of brefeldin A (Golgi Plug; BD Biosciences). […]
To examine the mechanism of EAE prevention by SB, the TH1 and TH17 effector subsets were analyzed in treated female mice. […] On D30 post-immunization, CNS (brain and spinal cord) cells were harvested and analyzed by intracellular staining and flow cytometry. […] Draining lymph node (DLN) cells were collected on D20 and restimulated with MOG35-55 for 3 days, and production of IFN-γ and IL-17 was assessed by ELISA.

C[S+]([O-])c1ccc(-c2nc(-c3ccncc3)c(-c3ccc(F)cc3)[nH]2)cc1 (stereo not drawn) [SB203580]
Cellular IL-17 protein levels (intracellular staining, flow cytometry) ([1]; 5 μM): decreased | IL-17 mRNA levels (qRT-PCR) ([1]; 5 μM): not significantly affected | IL-17 production / secretion (ELISA) ([1]; inhibitor present, listed as SB): suppressed IL-17 production in a dose-dependent manner; also recorded: decreased; also recorded: reduced IL-17 production in vitro; also recorded: inhibits IL-17 production at a post-transcriptional level | IFN-γ production by TH1 cells ([2]; CNS cells): did not suppress IFN-γ production | IL-17 production by TH17 cells ([2]; CNS cells, listed as SB): inhibits IL-17 production by TH17 cells; also recorded: specifically inhibited IL-17 production; also recorded: only partially inhibits IL-17 production | Percentage or number of infiltrating CD4+ T cells in the CNS [2]: did not decrease the percentage or number of infiltrating CD4+ T cells
